According to patent publication US10266489B2, “Pyrrolic amide compound and preparation method and application thereof” (HitGen LTD, priority 2014, dated 2019):
pIC50: −log10 of the molar value.

Key:
HepG2 cells = experiment: Determination of cell growth inhibition, CCK-8, HepG2; type: cell-based; settings: Homo sapiens, HepG2 hepatoma cells, 72 hours, highest measured IC50 of single or multiple operations
Text: (§1) Test example 2 Cell determination-determination of cell growth inhibition Materials and reagents HepG2 cell strains, Hep3B cell strains, Huh7 cell strains and Li7 cell strains are purchased from Shanghai Institutes for Biological Sciences of Chinese Academy of Sciences; DMEM high glucose media and MEM media are purchased from Hyclone; fetal calf serum is purchased from Gibco Company; trypsin is purchased from Invitrogen Shanghai; CCK-8 kits are purchased from Beyotime Institute of Biotechnology; and other consumables such as cell-culture dishes and the like are purchased from Corning China. […]
(§2) comprising the steps: digesting HepG2 cells, Hep3B Huh7 cells and Li7 cells in logarithmic phases by using the trypsin; after counting the cells by taking uniform cell suspension, adjusting cell density to 1500 cells/pore by using a culture medium containing 10% of serum, and re-inoculating into a 96-pore cell culture plate, wherein the culture volume is 200 μL; incubating in a 5% CO2 incubator at a temperature of 37° C.; and culturing for 24 hours for experiments. […]
(§3) comprising the steps: taking the cells cultured for 24 hours from the incubator, sucking culture solution in the pore plate, adding 200 μL of compound solution prepared by using a culture medium containing 10% of the fetal calf serum into each pore, enabling five pores of each concentration to be parallel, setting DMSO at negative control, and incubating in the 5% CO2 incubator at a temperature of 37° C. for 72 hours for performing CCK-8 detection. […]
(§4) comprising the steps: taking a serum-free medium and a CCK-8 solution, and preparing a CCK-8 working solution according to a ratio of 10:1 (the process needs to be protected from light); taking the cells cultured for 72 hours from the incubator, sucking culture solution in the pore plate, adding 120 μL of the CCK-8 working solution into each pore, adding 120 μL of the CCK-8 working solution into a cell-free pore plate to serve as blank control, and incubating in the 5% CO2 incubator at a temperature of 37° C. for one hour (the process needs to be protected from light ); and […]
(§5) taking the pore plate from the incubator, sucking 100 μL of solution from each pore into a new 96-pore plate, and reading absorbancy at 450 nm (the process needs to he protected from light).
(§6) Tx: absorbancy measured in CCK-8 within 72 hours after compound effect
(§7) C: absorbancy measured m CCK-8 within 72 hours after culturing in negative control pores B: absorbancy measured CCK-8 in blank control pores
(§8) The compounds 1-19 prepared in the embodiments are operated in the above determination, and test results are shown in Table 3, wherein the highest measured IC50 values of the various compounds during single or multiple operations are classified as specified, as shown in Table 3: […]

[1] = target: T1, histone deacetylase 3 (HDAC3) (Homo sapiens, UniProt O15379); experiment: Detection of enzyme viability of histone deacetylase 3 (fluorogenic substrate deacetylation); type: biochemical; settings: 0.16 ng/μL HDAC 3, 10 μM substrate
T1 construct: purchased BPS Bioscience 50003
T1 sequence (O15379 whole entry): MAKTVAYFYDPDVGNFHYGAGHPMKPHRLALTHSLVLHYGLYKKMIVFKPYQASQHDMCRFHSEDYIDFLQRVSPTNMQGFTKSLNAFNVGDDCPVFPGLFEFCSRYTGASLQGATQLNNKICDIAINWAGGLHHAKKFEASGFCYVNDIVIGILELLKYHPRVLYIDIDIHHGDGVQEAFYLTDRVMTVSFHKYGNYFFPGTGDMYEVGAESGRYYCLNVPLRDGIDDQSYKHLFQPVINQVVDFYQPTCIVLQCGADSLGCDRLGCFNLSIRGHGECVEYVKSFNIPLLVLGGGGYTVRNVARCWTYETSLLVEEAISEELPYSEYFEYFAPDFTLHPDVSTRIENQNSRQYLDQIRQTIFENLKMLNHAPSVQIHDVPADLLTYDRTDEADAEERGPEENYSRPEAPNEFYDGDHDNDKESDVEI
T1 sequence (Q9Y618 395-489 partner limits assumed): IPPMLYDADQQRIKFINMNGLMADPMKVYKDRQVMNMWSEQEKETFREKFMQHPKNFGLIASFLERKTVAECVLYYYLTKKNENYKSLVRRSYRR
Text: (§9) HDAC inhibitory viabilities of the compounds in the present invention are detected in detection of substrate deacetylation.
B: Detection of enzyme viability of histone deacetylase 3 (#50003, BPS Bioscience):
Acetyl of HDAC 3 on a substrate is removed, so that the substrate is activated and can be affected by the developing solution, and fluorophore is released. The size of a fluorescence signal reflects the viability of the HDAC 3. An IC50 detection method of the enzyme is disclosed in Chuping Xu, Elisabetta Soraeni Improved Histone Deacetylase Inhibitors as Therapeutics for the Neurdegenerative DiseaseFriedreich's Ataxia: A New Synthetic Route. A total reaction system (100 μL/well) contains 0.16 ng/μL of HDAC 3, 10 μM of substrate and compounds of different concentrations. The fluorescence signal is detected at Ex/Em=360/460 on line, inhibitory effects of the compounds are determined from the obtained data and mapped with the compound concentrations to obtain a concentration response curve, and the IC50 value is fitted according to a four-parameter model.
(§10) The compounds 1-19 prepared in the embodiments are subjected to detection of enzyme viability of histone deacetylase 3 (i.e., HDAC3) according to the method above. Test results are shown in Table 2, wherein the measured IC50 values of the compounds are classified as specified, as shown in Table 2: […]

Hep3B cells = experiment: Determination of cell growth inhibition, CCK-8, Hep3B; type: cell-based; settings: Homo sapiens, Hep3B hepatoma cells, 72 hours, highest measured IC50 of single or multiple operations
Text: as §1, §2, §3, §4, §5, §6, §7, §8

[2] = target: T2, histone deacetylase 6 (HDAC6) (Homo sapiens, UniProt Q9UBN7); experiment: Detection of enzyme viability of histone deacetylase 6 (fluorogenic substrate deacetylation); type: biochemical; settings: 0.35 ng/μL HDAC 6, 20 μM substrate, 37° C.
T2 construct: purchased BPS Bioscience 50076
T2 sequence (Q9UBN7 1-1215): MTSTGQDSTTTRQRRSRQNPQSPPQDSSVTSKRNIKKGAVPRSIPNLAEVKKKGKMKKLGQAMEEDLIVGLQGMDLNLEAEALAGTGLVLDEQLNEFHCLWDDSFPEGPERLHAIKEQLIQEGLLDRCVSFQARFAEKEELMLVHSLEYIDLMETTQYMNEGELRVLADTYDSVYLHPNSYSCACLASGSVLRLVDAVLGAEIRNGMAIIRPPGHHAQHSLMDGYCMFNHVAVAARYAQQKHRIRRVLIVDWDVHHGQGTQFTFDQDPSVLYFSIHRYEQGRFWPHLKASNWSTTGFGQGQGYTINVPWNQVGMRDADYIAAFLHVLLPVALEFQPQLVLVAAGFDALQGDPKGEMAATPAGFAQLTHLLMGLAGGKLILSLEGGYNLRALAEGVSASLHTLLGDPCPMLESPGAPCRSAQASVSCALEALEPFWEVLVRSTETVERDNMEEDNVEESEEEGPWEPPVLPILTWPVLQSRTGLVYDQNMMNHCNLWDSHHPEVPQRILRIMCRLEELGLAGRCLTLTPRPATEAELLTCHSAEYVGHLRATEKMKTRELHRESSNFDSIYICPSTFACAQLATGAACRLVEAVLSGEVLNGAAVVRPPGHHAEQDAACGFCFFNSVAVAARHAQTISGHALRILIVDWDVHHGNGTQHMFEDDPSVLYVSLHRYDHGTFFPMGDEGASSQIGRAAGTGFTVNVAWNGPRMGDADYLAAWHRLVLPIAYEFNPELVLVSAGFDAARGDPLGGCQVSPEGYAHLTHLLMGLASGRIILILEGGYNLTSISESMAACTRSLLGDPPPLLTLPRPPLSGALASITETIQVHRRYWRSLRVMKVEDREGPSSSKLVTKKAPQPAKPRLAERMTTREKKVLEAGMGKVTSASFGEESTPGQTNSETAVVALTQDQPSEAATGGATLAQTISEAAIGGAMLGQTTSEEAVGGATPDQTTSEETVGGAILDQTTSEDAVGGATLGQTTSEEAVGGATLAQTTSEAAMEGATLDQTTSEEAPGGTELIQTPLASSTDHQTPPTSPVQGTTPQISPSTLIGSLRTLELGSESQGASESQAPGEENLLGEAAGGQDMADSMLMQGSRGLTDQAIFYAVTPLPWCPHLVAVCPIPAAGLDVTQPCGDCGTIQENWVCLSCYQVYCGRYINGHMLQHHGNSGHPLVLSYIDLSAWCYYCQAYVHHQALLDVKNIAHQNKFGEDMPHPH
Text: as §9
A: Detection of enzyme viability of histone deacetylase 6 (#50076, BPS Bioscience):
Acetyl of HDAC 6 on a substrate is removed, so that the substrate is activated and can be affected by a subsequently added developing solution, and fluorophore is released. The size of a fluorescence signal reflects the viability of the HDAC 6. An IC50 detection method of the enzyme is disclosed in Chuping Xu, Elisabetta Soragni improved Histone Deacetylase Inhibitors as Therapeutics for the Neurdegenerative DiseaseEriedreich's Ataxia: A New Synthetic Route. A total reaction system (100 μL/well) contains 0.35 ng/μL of HDAC 6, 20 μM of substrate and compounds of different concentrations. The fluorescence signal is measured within 30 minutes after incubation at a temperature of 37° C., inhibitory effects of the compounds are determined from the obtained data and mapped with the compound concentrations to obtain a concentration response curve, and the IC50 value is fitted according to a four-parameter model.
as §10, with “6” for “3”, “HDAC6)” for “HDAC3)”

Li7 cells = experiment: Determination of cell growth inhibition, CCK-8, Li-7; type: cell-based; settings: Li-7 hepatoma cells, 72 hours, highest measured IC50 of single or multiple operations
Text: as §1, §2, §3, §4, §5, §6, §7, §8

Huh7 cells = experiment: Determination of cell growth inhibition, CCK-8, Huh-7; type: cell-based; settings: Homo sapiens, Huh-7 hepatoma cells, 72 hours, highest measured IC50 of single or multiple operations
Text: as §1, §2, §3, §4, §5, §6, §7, §8

SMILES | pIC50 (HepG2 cells) | pIC50 [1] | pIC50 (Hep3B cells) | pIC50 [2] | pIC50 (Li7 cells) | pIC50 (Huh7 cells)
O=C(NO)C1=CCN(S(=O)(=O)c2ccccc2)C1 [Compound 2, N-hydroxy-1-(benzene-sulfonyl)-2,5-dihydro-1H-pyrrole-3-formamide] | < 5.00 | < 6.00 | < 5.00 | > 7.00 | < 5.00 | < 5.00
O=C(NO)C1=CCN(S(=O)(=O)c2ccc(Oc3ccccc3)cc2)C1 [Compound 3] | < 5.00 | 6.00 to 7.00 | < 5.00 | 6.52 to 7.00 | < 5.00 | < 5.00
CC(=O)Nc1ccc(S(=O)(=O)N2CC=C(C(=O)NO)C2)cc1Cl [Compound 4, N-hydroxy-1-((4-acetamido-3-chlorphenyl)sulfonyl)2,5-dihydro-1H-pyrro1e-3-formamide] | < 5.00 | 6.00 to 7.00 | < 5.00 | > 7.00 | < 5.00 | < 5.00
O=C(NO)C1=CCN(S(=O)(=O)c2ccc3c(c2)OCCO3)C1 [Compound 5, N-hydroxy-1-((2,3-dihydro-benzo[b] [1,4]dioxin)-6-sulfonyl)2,5-dihydro-1H-pyrrole-3-formamide] | < 5.00 | < 6.00 | < 5.00 | > 7.00 | < 5.00 | < 5.00
O=C(NO)C1=CCN(S(=O)(=O)c2ccc3c(c2)OCC3)C1 [Compound 6, N-hydroxy-1-((2,3-dihydro-benzofuran)-6-sulfonyl)2,5-dihydro-1H-pyrrole-3-formamide] | < 5.00 | 6.00 to 7.00 | < 5.00 | > 7.00 | < 5.00 | < 5.00
CC(C)(C)c1ccc(S(=O)(=O)N2CC=C(C(=O)NO)C2)cc1 [Compound 8] | < 5.00 | 6.00 to 7.00 | < 5.00 | > 7.00 | < 5.00 | < 5.00
